One test relates to MCF7 cells. The test can be described thus: Caskin2–talin colocalization in MCF7 cells (Pearson's correlation). It counts as cell-based, Human. Conditions: blebbistatin 10 µM, 20 µM for 45 min (Fig. S3B). As for the experimental part:
PA-JEB/β4 keratinocytes were seeded on glass coverslips and cultured for 24 h in complete KGM, and then continued to be cultured for a further 16 h in DMEM with 10% FCS. GE11^tetONβ1 and MCF7 cells were seeded on glass coverslips and cultured for 24 h in DMEM with 10% FCS. Cells were fixed in 2% paraformaldehyde and permeabilized with 0.2% Triton X-100 for 5 min, blocked with PBS containing 2% bovine serum albumin (BSA; Sigma-Aldrich) for 45 min and subsequently incubated with primary and secondary antibodies for 1 h. In between antibody steps, the coverslips were washed three times with PBS. Actin fibers were visualized by staining with Phalloidin–Alexa Fluor 647 (Cell Signaling Technology). Nuclei were stained with DAPI. Samples were mounted on glass slides in Mowiol after three washing steps with PBS. Images were acquired with a Leica TCS SP5 confocal microscope with a 63× (NA 1.4) oil objective. Software for image acquisition is Leica LAS AF 3.0.2 ([Wang et al., 2020b]).
Imaging analysis was performed using FIJI software ([Schindelin et al., 2012]). The levels of colocalization between Caskin2 and various other proteins, including integrin β4, FA proteins and CMSC components, was performed using Pearson's co-efficient analysis in the JACoP module of ImageJ ([Carisey et al., 2013]; [Wang et al., 2020b]).

In test [1] the test system is talin-R7R8 (residues 1358–1653), R8 domain. The test can be described thus: X-ray structure of talin-R7R8 in complex with Caskin2-LD peptide, interface analysis. It counts as binding, murine. Conditions: electron density map; 1:2 molar ratio of protein to peptide. As for the experimental part: A codon-optimized synthetic gene encoding murine talin-R7/R8 domains (residues 1358–1653) was cloned into the pETNKI-6xhis-3C-LIC vector ([Luna-Vargas et al., 2011]). The 6×his–3C–talin-R7/R8 protein was expressed in Bl21(DE3) cells, for 18 h at 20°C upon induction with 0.4 mM IPTG. Cells were harvested by centrifugation (4000 g for 15 min) and stored at −20°C. After thawing, cells were resuspended in lysis buffer [25 mM Tris-HCl pH 8.0, 10 mM imidazole, 200 mM NaCl, 1 mM TCEP and 5 μg/ml DNase (Roche)] and lysed by sonication. The soluble lysate fractions were collected after centrifugation (55,000 g at 4°C for 30 min) and applied to a nickel Sepharose column. Beads were washed with wash buffer (lysis buffer without DNase) and protein was eluted in the same buffer supplemented with 250 mM imidazole. The 6×His tag was cleaved off by his-3C protease during dialysis against 25 mM Tris-HCl pH 8.0, 100 mM NaCl, 1 mM TCEP for 16 h at 4°C. The protein solution was diluted with an equal volume of 25 mM Tris-HCl pH 8.0, 1 mM TCEP before his-3C protease and uncleaved 6×his–talin-R7/R8 were removed by nickel Sepharose. The protein was further purified by anion exchange chromatography (Resource Q column, Cytiva) followed by size exclusion chromatography (S75 Superdex 16/60, Cytiva) in 25 mM Tris-HCl pH 8.0, 100 mM NaCl, 1 mM TCEP. Talin-R7/R8 eluted in a single peak. […]

No end group written: not given here.

`Cc1ccc2c(c1)C(=O)C1(O)CCN(c3ccccc3)C1=N2` (centres unmarked) [blebbistatin]: in the test on MCF7 cells, the “overall Caskin2–talin colocalization” value is “increased overall Caskin2–talin colocalization”.
With “Caskin2-LD peptide: C-terminal LD motif peptide of Caskin2 (residues 1187–1202) (STMFDALADQLDAMLD; also: Atto488 label)”, the “binding to talin-R8 in crystal structure” value in test [1] is “clear binding of the Caskin2-LD peptide to the R8 motif”.
